The record followed here is US9119396B2, “Method for promoting plant growth” (SUMITOMO CHEMICAL COMPANY, LIMITED, priority 2011, dated 2015).

This assay has as its system Rice (cultivar: Nipponbare). The assay can be described thus: Test Example 5: reduction of low-temperature stress by treatment of rice seeds. Format: in vivo. The conditions noted are these: rice seed treatment, low-temperature stress 4° C. 5 days, then 12 days at 25° C. The method, then:
Evaluation Test for Reduction of Low-Temperature Stress by Treatment of Rice Seeds Rice (cultivar: Nipponbare) A blank slurry solution containing 5% (V/V) color coat red (Becker Underwood, Inc.), 5% (V/V) CF-Clear (Becker Underwood, Inc.) and 1% Maxim XL (Syngenta) was prepared. A slurry solution was prepared by dissolving the present compound 1 in the blank slurry solution such that 5 g or 50 g of the compound is applied to each 100 kg of rice seeds. In a 15-ml centrifuge tube (manufactured by AGC TECHNO GLASS CO., LTD.), 0.1 ml of the slurry solution was placed for each 3 g of rice seeds and stirred until the solution was dried, thereby coating the seeds. In addition, seeds were coated with the blank slurry solution and used as seeds for a non-treated group. A filter paper was placed on the bottoms of the holes of a plug tray having 406 holes, and the rice seeds treated above were sown on the filter paper. […] Twelve (12) days after the treatment, the fresh weight of the overground part of each plant was measured. The experiment was performed in four replications in each treated group and the average value was calculated. […]

For the compound `COC(=O)c1cc2cc(C(F)(F)F)ccc2s1` [compound 1], the “fresh weight of the overground part of plants vs non-treated group” value (5 g per 100 kg of seeds) is “much heavier” and the “fresh weight of the overground part of plants vs non-treated group” value (50 g per 100 kg of seeds) is given as “much heavier”.
